Experiment: solvent given as SMILES

Structure (SMILES): CCCCOc1c(C=C2Sc3ccccc3N2C)c(=O)c1=O
- absorption maximum (in CCO): 442 nm

Structure (SMILES): Cc1cc(-c2ccc(C(C)(C)C)cc2)c2nsnc2c1-c1ccc(N(c2ccccc2)c2ccccc2)cc1
- absorption maximum (in ClCCl): 402 nm

Structure (SMILES): O=C1c2cc(F)ccc2-c2cnccc21
- absorption maximum (in CC#N): 408.61 nm
- absorption maximum (in CCCCCC): 408.61 nm

Structure (SMILES): CC(C)(C)Nc1cc2sc3cc(NC(C)(C)C)c(F)cc3c(=O)c2cc1F
- absorption maximum (in CCO): 373 nm

Structure (SMILES): Cn1cccc1-c1cc(C#N)ccc1C#N
- absorption maximum (in C1CCOC1): 370 nm
- absorption maximum (in CC#N): 359 nm
- absorption maximum (in CCCCCC): 366 nm
- absorption maximum (in CCCCOCCCC): 370 nm
- absorption maximum (in CCOCC): 364 nm

Structure (SMILES): CN(C)c1ccc(C#Cc2ccc3ccc(=O)oc3c2)cc1
- absorption maximum (in CC#N): 333 nm

Structure (SMILES): O=Cc1ccc(-c2ccc(O)c(-c3nc4ccccc4s3)c2)o1
- absorption maximum (in CCO): 341 nm

Structure (SMILES): c1cc2ccc1-c1ccc(cc1)-c1sc(c3c1OCCO3)-c1ccc(cc1)-c1ccc(cc1)-c1sc(c3c1OCCO3)-c1ccc(cc1)-c1ccc(cc1)-c1sc-2c2c1OCCO2
- absorption maximum (in C1CCOC1): 371 nm

Structure (SMILES): Cc1c(C(=O)c2ccccc2Cl)c2ccc3cccc4c5cccc6ccc1c(c65)c2c34
- absorption maximum (in ClCCl): 390 nm

Structure (SMILES): N#Cc1c(-n2c3ccc(I)cc3c3cc(I)ccc32)c(C#N)c(-n2c3ccc(I)cc3c3cc(I)ccc32)c(-n2c3ccc(I)cc3c3cc(I)ccc32)c1-n1c2ccc(I)cc2c2cc(I)ccc21
- absorption maximum (in Cc1ccccc1): 384 nm

Structure (SMILES): Cc1ccc(/C=N/c2cc(C(C)C)c(O)cc2C)cc1
- absorption maximum (in C1CCCCC1): 341 nm
- absorption maximum (in C1CCOC1): 348 nm
- absorption maximum (in C1COCCO1): 344 nm
- absorption maximum (in CC#N): 337 nm
- absorption maximum (in CC(C)(C)O): 346 nm
- absorption maximum (in CC(C)O): 345 nm
- absorption maximum (in CCCCCC): 340 nm
- absorption maximum (in CCCCO): 345 nm
- absorption maximum (in CCO): 344 nm
- absorption maximum (in CCOC(C)=O): 344 nm
- absorption maximum (in CN(C)C=O): 347 nm
- absorption maximum (in CO): 344 nm
- absorption maximum (in CS(C)=O): 348 nm
- absorption maximum (in ClC(Cl)Cl): 346 nm
- absorption maximum (in ClCCl): 341 nm
- absorption maximum (in O): 346 nm
- absorption maximum (in OCCO): 344 nm

Structure (SMILES): C#Cc1ccc(C#Cc2cnc(C#Cc3ccccc3)nc2)cc1
- absorption maximum (in C1CCCCC1): 325 nm

Structure (SMILES): COc1ccc(-c2ccc(-c3c4c(nc5ccccc35)-c3cc5c(cc3CC4)-c3nc4ccccc4c(-c4ccc(-c6ccc(OC)cc6)cc4)c3CC5)cc2)cc1
- absorption maximum (in ClC(Cl)Cl): 376 nm

Structure (SMILES): CCCCCCCCCCCCn1c(-c2cc(-c3nc4ccc(C)cc4n3CCCCCCCCCCCC)cc(-c3nc4ccc(C)cc4n3CCCCCCCCCCCC)c2)nc2ccc(C)cc21
- absorption maximum (in ClCCl): 306.5 nm

Structure (SMILES): CCN(CC)c1ccc(C2=C3C(C)=CC(C)=[N+]3[B-](F)(F)n3c(C)cc(C)c32)cc1
- absorption maximum (in CO): 500 nm

Structure (SMILES): CC(C)(C)c1cc(C#Cc2ccc3c(C#Cc4cc(C(C)(C)C)cc(C(C)(C)C)c4)cc4c5cc(C#Cc6cc(C(C)(C)C)cc(C(C)(C)C)c6)ccc5c(C#Cc5cc(C(C)(C)C)cc(C(C)(C)C)c5)cc4c3c2)cc(C(C)(C)C)c1
- absorption maximum (in ClCCl): 416 nm

Structure (SMILES): CN1C(=O)/C(=C/c2ccncc2)N=C1/C=C/c1ccccc1
- absorption maximum (in C1COCCO1): 411 nm
- absorption maximum (in CC#N): 408 nm
- absorption maximum (in CCO): 411 nm
- absorption maximum (in CCOC(C)=O): 408 nm
- absorption maximum (in O): 408 nm

Structure (SMILES): COCCC1=Cc2nc1ccc1[nH]c(cc1CCOC)c1nc(ccc3[nH]c2cc3CCOC)C(CCOC)=C1
- absorption maximum (in Cc1ccccc1): 638 nm

Structure (SMILES): Nc1ccc2c(c1)-c1ccccc1C2=O
- absorption maximum (in C1CCCCC1): 386 nm
- absorption maximum (in CC#N): 409 nm
- absorption maximum (in CCO): 429 nm
- absorption maximum (in c1ccccc1): 395 nm

Structure (SMILES): CCCCCCN1C(=O)c2cccc3cc(/N=C\c4ccc(N(c5ccccc5)c5ccccc5)cc4)cc(c23)C1=O
- absorption maximum (in ClC(Cl)Cl): 380 nm

Structure (SMILES): CCCCCCN1C(=O)c2cccc3c(-c4ccc(-c5cc(-c6ccccc6)nn5-c5ccccc5)s4)ccc(c23)C1=O
- absorption maximum (in ClCCl): 388 nm

Structure (SMILES): COc1ccc(-c2nc(-c3ccccc3O)c(-c3ccccc3O)n2-c2ccc(C)cc2)cc1
- absorption maximum (in C1CCOC1): 305 nm
- absorption maximum (in CS(C)=O): 308 nm
- absorption maximum (in ClC(Cl)Cl): 304 nm
- absorption maximum (in ClCCl): 304 nm

Structure (SMILES): N#Cc1ccc(C2=Cc3cc4ccccc4cc3P2(=O)c2ccccc2)cc1 (stereo not given)
- absorption maximum (in ClCCl): 391 nm

Structure (SMILES): COc1cc(OC)cc(C2=[O+][B-](F)(F)OC(c3ccccc3)=C2)c1
- absorption maximum (in ClCCl): 369 nm

Structure (SMILES): COc1ccc(C2=[N+]3C(=Nc4c(C)cc(-c5ccc(OC)cc5)n4[B-]3(F)F)C(C)=C2)cc1
- absorption maximum (in CS(C)=O): 656 nm

Structure (SMILES): C(=C\c1ccc(-c2ccccc2)cc1)/c1ccc(Oc2ccc3ccccc3c2-c2c(Oc3ccc(/C=C/c4ccc(-c5ccccc5)cc4)cc3)ccc3ccccc23)cc1
- absorption maximum (in ClCCl): 328 nm

Structure (SMILES): Clc1ccc(-c2nc3ccccc3n2-c2ccccc2)cc1
- absorption maximum (in CC#N): 295 nm

Structure (SMILES): COc1ccc(C2=C(c3ccc(F)cc3)C(c3ccccc3)=[N+]3C2=Nc2c(-c4ccc(OC)cc4)c(-c4ccc(F)cc4)c(-c4ccccc4)n2[B-]3(F)F)cc1
- absorption maximum (in Cc1ccccc1): 653 nm

Structure (SMILES): CC1(C)OB(c2cc3ccc4cc(B5OC(C)(C)C(C)(C)O5)cc5ccc(c2)c3c45)OC1(C)C
- absorption maximum (in Cc1ccccc1): 398 nm

Structure (SMILES): CCCCn1c(-c2ccc(-c3ccc(-c4ccc(-c5n(CCCC)c6ccccc6[n+]5CCCC)cc4)cc3)cc2)[n+](CCCC)c2ccccc21
- absorption maximum (in O): 303 nm

Structure (SMILES): CN(C)c1cccc2c1C(=O)c1ccccc1-2
- absorption maximum (in C1CCCCC1): 433 nm
- absorption maximum (in CC#N): 444 nm
- absorption maximum (in CCO): 449 nm
- absorption maximum (in c1ccccc1): 445 nm

Structure (SMILES): CN(C)c1ccc2c(c1)C(C)(C)C(=O)C=C2
- absorption maximum (in O): 413 nm

Structure (SMILES): CCCCCCN1C(=O)c2cccc3c(-c4ccc(-c5ccc6c7c(cccc57)C(=O)N(CCCCCC)C6=O)s4)ccc(c23)C1=O
- absorption maximum (in ClC(Cl)Cl): 395 nm

Structure (SMILES): CC1(C)c2ccccc2N(c2ccc3c(c2)c2ccccc2c2nc4ccccc4nc32)c2ccccc21
- absorption maximum (in Cc1ccccc1): 382 nm

Structure (SMILES): CCCCCCN(CCCCCC)c1ccc(C#Cc2ccc(/C=C/c3ccc(-c4ccc(/C=C/c5ccc(C#Cc6ccc(N(CCCCCC)CCCCCC)cc6)cc5)cc4)cc3)cc2)cc1
- absorption maximum (in Cc1ccccc1): 400 nm

Structure (SMILES): CC(C)[Si]1(C(C)C)c2cc(C#N)ccc2-c2ccc(N(c3ccccc3)c3ccccc3)cc21
- absorption maximum (in C1CCCCC1): 391 nm
- absorption maximum (in CC#N): 381 nm
- absorption maximum (in CCO): 385 nm
- absorption maximum (in CCOCC): 383 nm
- absorption maximum (in CS(C)=O): 387 nm
- absorption maximum (in ClCCl): 388 nm
- absorption maximum (in c1ccccc1): 389 nm

Structure (SMILES): C(=C\c1ccnc2ccccc12)/c1c2ccccc2cc2ccccc12
- absorption maximum (in CC1CCCCC1): 387 nm
- absorption maximum (in CC#N): 387 nm

Structure (SMILES): Cc1cc(C)c(C)c(-c2ccc3cc(C)c(=O)oc3c2)c1C
- absorption maximum (in C1CCCCC1): 312 nm
- absorption maximum (in CC#N): 314 nm
- absorption maximum (in CO): 315 nm

Structure (SMILES): CCn1ncc2c3c(C#N)c4c5ccccc5n(CC)c4nc3ccc21
- absorption maximum (in CCOC(C)=O): 383 nm

Structure (SMILES): Cc1cc(C)nc(N)n1
- absorption maximum (in CCO): 297 nm
- absorption maximum (in CO): 296 nm
- absorption maximum (in O): 284 nm

Structure (SMILES): O=C1O/C(=C\c2cccs2)c2ccccc21
- absorption maximum (in CC#N): 355 nm

Structure (SMILES): c1ccc(C2=C3c4ccccc4C4=[N+]3[B-]3(Oc5ccccc54)Oc4ccccc4-c4c5ccccc5c2n43)cc1 (stereo not given)
- absorption maximum (in ClCCl): 711 nm

Structure (SMILES): COc1ccc2c3c(OC)c4ccccc4c(OC)c3n(C)c2c1
- absorption maximum (in C1CCCCC1): 392 nm
- absorption maximum (in CC#N): 393 nm
- absorption maximum (in CO): 392 nm
- absorption maximum (in ClCCl): 396 nm

Structure (SMILES): C[Si](C)(C)c1ccc(-c2ccc(-c3ccc(-c4ccc(-c5ccc([Si](C)(C)C)cc5)cc4)c4nsnc34)cc2)cc1
- absorption maximum (in C1CCOC1): 401 nm

Structure (SMILES): F[B-]1(F)n2c(-c3ccccc3)cc(-c3ccccc3)c2N=C2C(c3ccccc3)=CC(c3ccccc3)=[N+]21
- absorption maximum (in CC#N): 643 nm
- absorption maximum (in ClC(Cl)Cl): 650 nm

Structure (SMILES): Cc1cc(-c2nc3c4ccccc4c4ccccc4c3n2-c2ccc(C(C)(C)C)cc2)ccc1-c1ccc(-c2c(-c3ccccc3)nc3ccccn23)cc1
- absorption maximum (in ClCCl): 364 nm

Structure (SMILES): COC(C)CC1=N/C(=C\c2cccc(N(C)C)c2)C(=O)N1C (stereo not given)
- absorption maximum (in C1CCOC1): 355 nm
- absorption maximum (in CC#N): 355 nm
- absorption maximum (in CCCCCC): 354 nm

Structure (SMILES): c1ccc(C2(c3ccccc3)c3ccc4ccc5ccccc5c4c3-c3c2ccc2ccc4ccccc4c32)cc1
- absorption maximum (in ClCCl): 408 nm

Structure (SMILES): C1=CC2=CC=CC3C=c4c(cc5cccc6cccc4c65)C(=C1)C23 (stereo not given)
- absorption maximum (in ClCCl): 543 nm

Structure (SMILES): CCn1c2ccccc2c2cc(C#Cc3cc(C#Cc4ccc5c(c4)c4ccccc4n5CC)nc(N4CCCCC4)n3)ccc21
- absorption maximum (in C1CCOC1): 393 nm
- absorption maximum (in CCOC(C)=O): 391 nm
- absorption maximum (in CN(C)C=O): 398 nm
- absorption maximum (in Cc1ccccc1): 395 nm
- absorption maximum (in ClCCl): 397 nm

Structure (SMILES): CCC(C)(C)c1ccc(-c2ccc(-c3ccc(C(C)(C)CC)cc3)cc2)cc1
- absorption maximum (in C1COCCO1): 289 nm

Structure (SMILES): Cc1cc(O)c(-c2[nH]c(=O)n3c2-c2ccccc2C3=O)cc1Cl
- absorption maximum (in CC#N): 393 nm
- absorption maximum (in CO): 395 nm
- absorption maximum (in ClCCl): 399 nm

Structure (SMILES): Cc1cnc(NC(=O)C2=C(O)c3ccccc3S(=O)(=O)N2C)s1
- absorption maximum (in C1COCCO1): 342 nm
- absorption maximum (in CC#N): 340 nm
- absorption maximum (in CCCCO): 350 nm
- absorption maximum (in CCCO): 350 nm
- absorption maximum (in CCO): 349 nm
- absorption maximum (in CCOC(C)=O): 343 nm
- absorption maximum (in CO): 346 nm

Structure (SMILES): COc1ccc(-n2nc(C#N)c(N3CCCC3)n2)cc1OC
- absorption maximum (in CC#N): 344 nm

Structure (SMILES): C(#Cc1ccccc1)C(C#Cc1ccccc1)=Cc1cccc(C=C(C#Cc2ccccc2)C#Cc2ccccc2)c1
- absorption maximum (in ClC(Cl)Cl): 349 nm

Structure (SMILES): Cc1cc(-c2ccc(C(C)(C)C)cc2)cc(C)[o+]1
- absorption maximum (in CC#N): 345 nm
- absorption maximum (in ClCCl): 365 nm

Structure (SMILES): Cc1ccc(C2=Cc3c4ccccc4c4ccccc4[n+]3[B-](F)(F)O2)cc1
- absorption maximum (in ClC(Cl)Cl): 437 nm

Structure (SMILES): COC(=O)c1noc(-c2ccccc2)c1Br
- absorption maximum (in C1CCCCC1): 307 nm

Structure (SMILES): CC(C)n1c2cc(O)c(F)cc2c(=O)c2cc(F)c(O)cc21
- absorption maximum (in CCO): 379 nm

Structure (SMILES): CCCCC(CC)CN1C(=O)C2=C(c3ccc(-c4ccc(C5=C6C(C)=CC(C)=[N+]6[B-](F)(F)n6c(C)cc(C)c65)cc4)s3)N(CC(CC)CCCC)C(=O)C2=C1c1cccs1 (stereo not given)
- absorption maximum (in Cc1ccccc1): 580 nm

Structure (SMILES): O=Cc1ccc(C#CC(C#Cc2ccc(C=O)s2)=Cc2ccc(C=C(C#Cc3ccc(C=O)s3)C#Cc3ccc(C=O)s3)s2)s1
- absorption maximum (in ClC(Cl)Cl): 524 nm

From the Deep4Chem optical property database
